Legend:
KRAS-G12C/SOS1 = KRAS-G12C/SOS1 (Homo sapiens (Human), UniProt Q07889); assay: Detection of inhibitory effects of compounds on KRAS-G12C/SOS1 (KRASG12C/SOS binding kit, HTRF); conditions: Em665/620, read-out: IC50, inhibitory activity on interaction of KRAS-G12C/SOS1
Excerpt: Experimental objective: The inhibitory effects of the tested compounds on KRAS-G12C/SOS1 were detected. IC50 was used to characterize the inhibitory ability of the compounds on the KRAS-G12C/SOS1. The lower IC50 value indicated the stronger inhibitory ability. BI-3406 was used as a positive control compound.
Experimental reagents: KRASG12C/SOS binding kit (Cisbio, cat. 63ADK000CB16PEG); DMSO (Sigma, cat. D8418-1L); and 384-well white plate (PerkinElmer, cat. 6007290)
• 1. Preparation of compounds: the test compounds were dissolved in 100% DMSO to obtain 10 mM stock solutions and the stock solutions were stored in a refrigerator in the dark. • 2. Kinase reaction process:
Preparation of compounds: the test compounds had the concentration of 5,000 nM and diluted in a 384-well plate into a 100% DMSO solution at the 200-fold final concentration, and the compounds were diluted 3-fold with 10 concentrations. 50 nL of the compounds at the 200-fold final concentration were transferred to the plate of interest, the 384-well plate, using a dispenser Echo 550. 50 nL of 100% DMSO was added to each negative control well and positive control well.
A Tag1-SOS1 solution at the 4-fold final concentration was prepared using a diluent buffer.
2.5 μL of the Tag1-SOS1 solution at the 4-fold final concentration was added to the 384-well plate.
A Tag2-KRAS-G12C solution at the 4-fold final concentration was prepared using the diluent buffer.
2.5 μL of the Tag2-KRAS-G12C solution at the 4-fold final concentration was respectively added into compound wells and the positive control wells; and 2.5 μL of the diluent buffer was added to the negative control wells.
The 384-well plate was centrifuged at 1,000 rpm for 30 seconds, shaken and mixed uniformly, and incubated at room temperature for 15 minutes.
An Anti-Tag1-TB3+ solution at the 1-fold final concentration and an Anti-Tag2-XL665 solution at the 1-fold final concentration were prepared using a detection buffer, the two solutions were mixed uniformly to obtain a Mix solution, and 5 μL of the Mix solution was added into each well.
The 384-well plate was centrifuged at 1,000 rpm for 30 seconds, shaken and mixed uniformly, and incubated at 4° C. for 120 minutes.
Em665/620 was read using an Envision microplate reader.
Inhibition %=(Max signal−Compound signal)/(Max signal−Min signal)×100 Calculation formula • wherein the Min signal was the mean value of the negative control wells, and the Max signal was the mean value of the positive control wells.
A dose-response curve was fitted using the log value of the concentration as an X axis and the percentage of the inhibitory rate as a Y axis by using the log(inhibitor) vs. response-variable slope of an analytical software GraphPadPrism5, thereby obtaining the IC50 value of each compound on an enzyme activity.

p-ERK of PC-9 cells = assay: p-ERK HTRF assay in PC-9 cells; assay type: cell-based; conditions: Homo sapiens, PC-9, 1 h, PC-9 lung cancer cells, 1 hour treatment, read-out: IC50, inhibitory activity on p-ERK of PC-9 cells
Experimental: IC50 Values of Compounds Determined by p-ERK HTRF Assay in PC-9 Cells
Experimental objective: an inhibitory effect of the test compounds on the phosphorylation of PC-9ERK of lung cancer cells at a cellular level was evaluated by detecting the phosphorylation of ERK.
• PRMI 1640 medium (Invitrogen-11875093) • 0.25% pancreatin (Invitrogen-25200056) • Phosphoric acid buffer salt solution (PBS, pH 7.4) (Invitrogen-10010023) • Double-antibody (PS) (Invitrogen-15140122) • Fetal bovine serum (FBS) (Gibco-10091148) • Trypan blue (Gibco-15250061) • 10-cm culture dish (Corning-430167) • 10-mL pipette (Costar-4488) • Pipettor (Sartorius-17009031) • 15-mL centrifuge tube (Corning-430052) • 50-mL centrifuge tube (Corning-430829) • Cryotube (Thermo-377267) • 1.5-mL EP tube (Axygen-MCT-150-C-S) • Cell incubator (Thermo-371) • Microscope (Olympus-CKX41) • Centrifuge (Flying Pigeon-TDL-80-2B) • Cell counter (Countstar-IC-1000) • Envision (Perkin Elmer) • Spark 10M (TECAN) • Phospho-ERK1/2 (Thr202/Tyr204) Experimental kit (Cisbio, Cat. No. 64AERPEG) • PC-9 cells: RPMI1640+10% FBS+1% PS
• 1) PBS, 0.25% pancreatin, and a cell culture medium were placed in a water-bath kettle at 37° C. for preheating; • 2) cells were observed under a microscope, a fusion degree was evaluated, and no bacterial and fungi pollution was confirmed; • 3) a culture solution was removed, the cells were washed with 5 mL of PBS and digested with 2 mL of the 0.25% trypsin, the digestion was terminated with 10 mL of the fresh cell culture medium, a culture dish was rinsed, and the cells were transferred to a 15-mL centrifuge tube; • 4) the collected cells were centrifuged at 1,000 rpm for 5 minutes; • 5) after the centrifugation, the supernatant was discarded, the cells were resuspended in 5 mL of the cell culture medium, 20 μL of the resuspended cells were aspirated, and the number and viability of viable cells were recorded; • 6) the cell culture medium was used and the cell density was adjusted (PC-9:10,000 cells/well, and 45 μL per well); • 7) in a 384-well plate, 45 μL of a cell suspension per well was transferred according to an experimental design figure; and • 8) the cells were incubated overnight at 37° C. and 5% CO2.
• 1) The compounds were diluted from the stock concentration to 10 mM with 100% DMSO (Trametinib was diluted to 1 mM), then 3-fold diluted into 10 points (5 μL of the diluted compounds with the concentration of 10 mM were transferred to 10 μL of the DMSO in an LDV plate), and centrifuged at 1,000 rpm/min for 1 minute; • 2) 5 μL of the diluted compounds of step 1) were transferred to an inter plate 1 containing 45 μL of the cell culture medium (the compounds were diluted from 1,000× to 100×); • 3) 5 μL of the diluted compounds of step 2) were transferred to an inter plate 2 containing 45 μL of the cell culture medium (the compounds were diluted from 100× to 10×); • 4) 5 μL of the compounds were pipetted from the inter plate 2 into a cell culture plate (the compounds were diluted from 10 folds to 1 fold), the final concentrations of the test compounds were 10,000 nM, 3333.33 nM, 1111.11 nM, 370.37 nM, 123.46 nM, 41.15 nM, 13.72 nM, 4.57 nM, 1.52 nM, and […], the solution was centrifuged at 1,000 rpm/min for 1 minute, and the final content of the DMSO was 0.1%; and • 5) the cells were treated in an incubator at 37° C. for 1 hour. […]

KRAS-G12C/SOS1, sequence (Q07889 whole entry, stated change not applied): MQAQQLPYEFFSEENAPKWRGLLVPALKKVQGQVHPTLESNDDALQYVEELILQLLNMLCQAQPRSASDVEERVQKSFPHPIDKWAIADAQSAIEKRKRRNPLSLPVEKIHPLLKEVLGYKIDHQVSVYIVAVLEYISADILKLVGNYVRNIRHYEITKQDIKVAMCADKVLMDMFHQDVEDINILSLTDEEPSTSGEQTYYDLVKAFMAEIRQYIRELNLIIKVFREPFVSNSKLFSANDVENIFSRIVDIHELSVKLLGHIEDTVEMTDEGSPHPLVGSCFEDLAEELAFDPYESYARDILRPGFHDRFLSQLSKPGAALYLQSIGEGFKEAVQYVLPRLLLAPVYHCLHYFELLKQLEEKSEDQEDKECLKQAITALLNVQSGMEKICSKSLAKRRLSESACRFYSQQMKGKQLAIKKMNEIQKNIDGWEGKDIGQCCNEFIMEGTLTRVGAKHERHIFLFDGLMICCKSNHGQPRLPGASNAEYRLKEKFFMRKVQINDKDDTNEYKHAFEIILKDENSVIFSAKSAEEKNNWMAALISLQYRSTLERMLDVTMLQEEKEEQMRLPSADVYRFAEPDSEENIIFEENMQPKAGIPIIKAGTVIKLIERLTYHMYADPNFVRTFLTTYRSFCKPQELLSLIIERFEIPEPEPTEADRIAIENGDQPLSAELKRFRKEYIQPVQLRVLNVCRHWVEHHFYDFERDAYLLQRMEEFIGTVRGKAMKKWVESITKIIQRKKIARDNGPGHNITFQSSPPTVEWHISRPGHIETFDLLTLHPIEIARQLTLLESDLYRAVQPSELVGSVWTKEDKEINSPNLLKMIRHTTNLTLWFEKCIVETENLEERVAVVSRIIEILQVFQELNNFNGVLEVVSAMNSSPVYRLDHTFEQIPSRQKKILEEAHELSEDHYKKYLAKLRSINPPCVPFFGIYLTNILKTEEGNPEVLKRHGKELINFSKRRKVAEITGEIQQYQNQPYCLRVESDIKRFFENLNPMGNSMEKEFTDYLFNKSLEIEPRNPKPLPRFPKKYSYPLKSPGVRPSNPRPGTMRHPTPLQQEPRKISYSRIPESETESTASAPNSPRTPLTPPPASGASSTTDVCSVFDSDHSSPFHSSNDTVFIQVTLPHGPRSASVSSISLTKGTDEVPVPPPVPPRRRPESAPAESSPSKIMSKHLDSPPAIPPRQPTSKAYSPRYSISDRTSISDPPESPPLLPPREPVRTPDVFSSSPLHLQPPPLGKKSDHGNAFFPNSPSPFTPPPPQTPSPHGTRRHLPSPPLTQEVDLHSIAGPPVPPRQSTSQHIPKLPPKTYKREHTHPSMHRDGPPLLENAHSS

`C[C@@H](Nc1ccnc2cnc(N3CCC(C(=O)O)CC3)cc12)c1cccc(C(F)F)c1F` [Compound B-35] showed an IC50 (KRAS-G12C/SOS1) of at most 100 nM and an IC50 (p-ERK of PC-9 cells) of over 1000 nM.
`CNC(=O)C1CCN(c2cc3c(N[C@H](C)c4cccc(C(F)F)c4F)ccnc3cn2)CC1` [Compound B-36] was tested, and the IC50 (KRAS-G12C/SOS1) was at most 100 nM and the IC50 (p-ERK of PC-9 cells) was at most 300 nM.
Work on `CC(=O)NC1CCN(c2cc3c(N[C@H](C)c4cccc(C(F)F)c4F)ccnc3cn2)CC1` [Compound B-37] yielded an IC50 (KRAS-G12C/SOS1) of at most 100 nM and an IC50 (p-ERK of PC-9 cells) of over 1000 nM.
With `C[C@@H](Nc1ccnc2cnc(N3CCS(=O)(=O)CC3)cc12)c1cccc(C(F)F)c1F` [Compound B-38] the IC50 (KRAS-G12C/SOS1) was at most 100 nM and the IC50 (p-ERK of PC-9 cells) was at most 300 nM.
In the case of `C[C@@H](Nc1ccnc2cnc(N3CCN(C)C(=O)C3)cc12)c1cccc(C(F)F)c1F` [Compound B-41], the IC50 (KRAS-G12C/SOS1) is reported as at most 100 nM and the IC50 (p-ERK of PC-9 cells) is reported as at most 300 nM.
`CC(=O)N1CCN(c2cc3c(N[C@H](C)c4cccc(C(F)F)c4F)ccnc3cn2)CC1CO` (some centres unmarked) [Compound B-44] showed an IC50 (KRAS-G12C/SOS1) of at most 100 nM and an IC50 (p-ERK of PC-9 cells) of at most 300 nM.
In the case of `CC(=O)N1CCN(c2cc3c(N[C@H](C)c4cccc(C(F)F)c4F)ccnc3cn2)[C@@H](CO)C1` [Compound B-45], the IC50 (KRAS-G12C/SOS1) is reported as at most 100 nM and the IC50 (p-ERK of PC-9 cells) is reported as at most 300 nM.
Compound `CC(=O)N1CCN(c2cc3c(N[C@H](C)c4cccc(C(F)F)c4F)ccnc3cn2)[C@H](CO)C1` [Compound B-47] has an IC50 (KRAS-G12C/SOS1) of at most 100 nM and an IC50 (p-ERK of PC-9 cells) of at most 300 nM.
`COC[C@@H]1CN(C(C)=O)CCN1c1cc2c(N[C@H](C)c3cccc(C(F)F)c3F)ccnc2cn1` [Compound B-48] showed an IC50 (KRAS-G12C/SOS1) of at most 100 nM and an IC50 (p-ERK of PC-9 cells) of at most 300 nM.
With `CC(=O)N1CCN(c2cc3c(N[C@H](C)c4cccc(C(F)(F)F)c4)ccnc3cn2)CC1` [Compound B-49] the IC50 (KRAS-G12C/SOS1) was at most 100 nM and the IC50 (p-ERK of PC-9 cells) was at most 300 nM.
For `CC(=O)N1CCN(c2cc3c(N[C@H](C)c4cccc(C(F)(F)F)c4C)ccnc3cn2)CC1` [Compound B-50], the IC50 (KRAS-G12C/SOS1) was at most 100 nM and the IC50 (p-ERK of PC-9 cells) was at most 300 nM.
Work on `CC(=O)N1CCC(N)(c2cc3c(N[C@H](C)c4cccc(C(F)F)c4F)ccnc3cn2)CC1` [Compound B-51] yielded an IC50 (KRAS-G12C/SOS1) of at most 100 nM and an IC50 (p-ERK of PC-9 cells) of at most 300 nM.
For `C[C@@H](Nc1ccnc2cnc(N3CCCS3(=O)=O)cc12)c1cccc(C(F)F)c1F` [Compound B-52], the IC50 (KRAS-G12C/SOS1) was at most 100 nM and the IC50 (p-ERK of PC-9 cells) was at most 300 nM.
`CC(=O)N1CCN(c2cc3c(N[C@H](C)c4cccc(C(F)F)c4F)ccnc3cn2)C(=O)C1` [Compound B-53] showed an IC50 (KRAS-G12C/SOS1) of at most 100 nM and an IC50 (p-ERK of PC-9 cells) of 300 to 1000 nM.
For `C[C@@H](Nc1ccnc2cnc(N3CCC(O)CC3=O)cc12)c1cccc(C(F)F)c1F` (some centres unmarked) [Compound B-54], the IC50 (KRAS-G12C/SOS1) was at most 100 nM and the IC50 (p-ERK of PC-9 cells) was 300 to 1000 nM.
`CC(=O)N1CCN(c2cc3c(N[C@H](C)c4cccc(C(F)F)c4F)ccnc3cn2)[C@@H](CC#N)C1` [Compound B-56] gave an IC50 (KRAS-G12C/SOS1) of at most 100 nM and an IC50 (p-ERK of PC-9 cells) of at most 300 nM.
For `C[C@@H](Nc1ccnc2cnc(N3CCCCS3(=O)=O)cc12)c1cccc(C(F)F)c1F` [Compound B-60], the IC50 (KRAS-G12C/SOS1) was at most 100 nM and the IC50 (p-ERK of PC-9 cells) was at most 300 nM.
In the case of `CC(=O)N1CCN(c2cc3c(N[C@H](C)c4cccc(C(F)F)c4F)ccnc3c(C)n2)CC1` [Compound B-62], the IC50 (KRAS-G12C/SOS1) is reported as at most 100 nM and the IC50 (p-ERK of PC-9 cells) is reported as at most 300 nM.
In the case of `CC(=O)N1CCN(c2cc3c(N[C@H](C)c4cccc(C(F)F)c4F)ccnc3c(C)n2)[C@@H](CO)C1` [Compound B-63], the IC50 (KRAS-G12C/SOS1) is reported as at most 100 nM and the IC50 (p-ERK of PC-9 cells) is reported as at most 300 nM.
`Cc1nc(N2CCCCS2(=O)=O)cc2c(N[C@H](C)c3cccc(C(F)F)c3F)ccnc12` [Compound B-65] showed an IC50 (KRAS-G12C/SOS1) of at most 100 nM and an IC50 (p-ERK of PC-9 cells) of 300 to 1000 nM.
Compound `CC(=O)N1C2CCC1CC(c1cc3c(N[C@H](C)c4cccc(C(F)F)c4F)ccnc3c(C)n1)C2` (some centres unmarked) [Compound B-67] has an IC50 (KRAS-G12C/SOS1) of at most 100 nM and an IC50 (p-ERK of PC-9 cells) of 300 to 1000 nM.
`CC(=O)N1CCC(O)(c2cc3c(N[C@H](C)c4cccc(C(F)F)c4F)ccnc3c(C)n2)CC1` [Compound B-68] was tested, and the IC50 (KRAS-G12C/SOS1) was at most 100 nM and the IC50 (p-ERK of PC-9 cells) was over 1000 nM.
With `CC(=O)N1C2CCC1CC(O)(c1cc3c(N[C@H](C)c4cccc(C(F)F)c4F)ccnc3c(C)n1)C2` (some centres unmarked) [Compound B-69] the IC50 (KRAS-G12C/SOS1) was at most 100 nM and the IC50 (p-ERK of PC-9 cells) was over 1000 nM.
Work on `Cc1nc(C2(O)CCC(O)CC2)cc2c(N[C@H](C)c3cccc(C(F)F)c3F)ccnc12` (some centres unmarked) [Compound B-70] yielded an IC50 (KRAS-G12C/SOS1) of at most 100 nM and an IC50 (p-ERK of PC-9 cells) of 300 to 1000 nM.
`CC(=O)N1CCN(c2cc3c(N[C@H](C)c4cccc(C(F)F)c4F)cc(C)nc3cn2)CC1` [Compound B-71] was tested, and the IC50 (KRAS-G12C/SOS1) was at most 100 nM and the IC50 (p-ERK of PC-9 cells) was at most 300 nM.

Reference: patent publication US20250042857A1, “SOS1 Inhibitor With Pyrido-Fused Six-Membered Ring Structure” (HAIHE BIOPHARMA CO., LTD., priority 2021, published 2025)
